Assay results published in US20250134861A1, “COMPOSITIONS COMPRISING 5-METHOXY-N,N-DIMETHYLTRYPTAMINE (5-MEO-DMT) FOR USE IN TREATING MENTAL DISORDERS” (GH RESEARCH IRELAND LIMITED, priority 2019, published 2025).

Experiments:
[1] = tested on: patients with treatment-resistant major depressive disorder; experiment: Clinical trial of inhaled 5-MeO-DMT in TRD patients: safety and tolerability; format: in vivo, human
healthy volunteers = experiment: Clinical trial of inhaled 5-MeO-DMT in healthy volunteers: safety and tolerability; format: in vivo, human
Procedure: The trial consisted of two parts: Part A, where single doses of 5-MeO-DMT dosage amounts of 2 mg, 6 mg, 12 mg and 18 mg were administered; and Part B, where an initial 5-MeO-DMT dosage amount of 6 mg was administered, and then, unless the participant had already experienced a peak psychedelic experience based on the PPEQ or the supervising physician had decided that further dose increases were inappropriate based on observed side effects, further subsequent dosage amounts of 12 mg and 18 mg were administered with about 3 hours in between each administration. […] Pharmacokinetic analysis of 5-MeO-DMT and bufotenine plasma levels was performed at 1 hour and 3 hours after drug administration in Part A, and at 3 hours after drug administration in Part B.
18 participants were recruited into Part A of the study and 4 participants were recruited into Part B. 9 Participants were female and 13 participants were male. Median age was 29 years (range: 19 to 42 years). In Part A, 4 participants received 2 mg, 6 participants received 6 mg, 4 participants received 12 mg and 4 participants received 18 mg of 5-MeO-DMT. In Part B, 1 participant received 6 mg, 2 participants received 6 mg and then 12 mg and one participant received 6 mg, 12 mg and then 18 mg of 5-MeO-DMT.

[2] = tested on: patients with treatment-resistant major depressive disorder; experiment: Clinical trial of inhaled 5-MeO-DMT in TRD patients: depression severity and psychiatric symptom scales; settings: Patient 1; for BPRS Unusual thought content (1-7) / MADRS suicidal thoughts item (0 to 6): baseline 1; for BPRS Somatic concern (1-7): baseline 3; for BPRS Tension (1-7): baseline 4; for BPRS Guilt feelings (1-7) / PGI-S (7-point scale; 1, Normal, not at all ill; 7, Extremely ill): baseline 5; for BPRS Depressive Mood (1-7): baseline 6
[3] = both patients, single 12 mg inhaled dose
[4] = Part A, 2 mg single inhaled dose (n = 4), Administration day, possibly or probably related, mild
[5] = Part A, 6 mg single inhaled dose (n = 6), Administration day, possibly or probably related, mild
[6] = Part A, 6 mg single inhaled dose (n = 6), Day 1, possibly or probably related, mild
[7] = Part A, 18 mg single inhaled dose (n = 4), Administration day, possibly or probably related, mild
[8] = Part A, 18 mg single inhaled dose (n = 4), Day 1, possibly or probably related, mild
[9] = Part B, 12 mg (n = 3), after 6 mg, Administration day, possibly or probably related, mild
[10] = 2 h after single 12 mg inhaled dose
[11] = 1 d after single 12 mg inhaled dose

COc1ccc2[nH]cc(CCN(C)C)c2c1 [5-MeO-DMT, 5-methoxy-N,N-dimethyltryptamine]
Reported adverse events ([1]; Patient 1, single 12 mg inhaled dose, Day 1): Headache, Flashback | Reported adverse events ([1]; Patient 1, single 12 mg inhaled dose, Day 7): Headache | Reported adverse events ([1]; Patient 1, single 12 mg inhaled dose, administration day): Dizziness | Reported adverse events ([1]; Patient 2, single 12 mg inhaled dose, Day 1): Headache | Reported adverse events ([1]; Patient 2, single 12 mg inhaled dose, Day 7): None reported | Reported adverse events ([1]; Patient 2, single 12 mg inhaled dose, administration day): None reported | Assessments of ECG, safety laboratory analyses, CADSS and cognitive tests (PVT, DSST) ([1]; both patients, ECG at 3 hours, laboratory at 3 hours and 7 days, CADSS at 3 hours, 1 day, 7 days, cognitive tests at 1 day and 7 days): unremarkable | Changes in vital parameters ([1]; both patients, shortly after single 12 mg inhaled dose, no other noteworthy changes): temporary, not clinically relevant increase in heart rate and blood pressure | Severity and course of reported adverse events [1, 3]: mild, short-lasting and resolved spontaneously | Tolerability of the inhalation procedure [1, 3]: well tolerated with no inhalation-related adverse events | Evaluation of ECG, safety laboratory analyses, CADSS and cognitive tests (PVT, DSST, PMT) (healthy volunteers; Part A and Part B): unremarkable | Severity and course of reported adverse events (healthy volunteers; Part A and Part B): all mild (except for one moderate event) and all resolved spontaneously | Inhalation-related adverse events (healthy volunteers; Part A and Part B, 2 to 18 mg inhaled): No inhalation-related adverse events | Adverse events reported: Nausea (healthy volunteers; [4]): 2 | Adverse events reported: Tachycardia (healthy volunteers; [4]): 1 | Adverse events reported: Vision blurred (healthy volunteers; [4]): 1 | Adverse events reported: Anxiety (healthy volunteers; [5]): 1 | Adverse events reported: Headache (healthy volunteers; [5]): 1 | Adverse events reported: Nausea (healthy volunteers; [5]): 1 | Adverse events reported: Clumsiness (healthy volunteers; [6]): 1 | Adverse events reported: Feeling hot (healthy volunteers; [6]): 1 | Adverse events reported: Headache (healthy volunteers; [6]): 1 | Adverse events reported: Anxiety (healthy volunteers; Part A, 12 mg single inhaled dose (n = 4), Administration day, possibly or probably related, mild): 1 | Adverse events reported: Heart rate increased (healthy volunteers; Part A, 12 mg single inhaled dose (n = 4), Administration day, possibly or probably related, this event was moderate): 1^1 | Adverse events reported: Headache (healthy volunteers; [7]): 1 | Adverse events reported: Nausea (healthy volunteers; [7]): 1 | Adverse events reported: Abnormal dreams (healthy volunteers; [8]): 1 | Adverse events reported: Fatigue (healthy volunteers; [8]): 1 | Adverse events reported: Hallucination (healthy volunteers; [8]): 1 | Adverse events reported: Hyperacusis (healthy volunteers; [8]): 1 | Adverse events reported: Insomnia (healthy volunteers; [8]): 1 | Adverse events reported: Mental fatigue (healthy volunteers; [8]): 1 | Adverse events reported: Flashback (healthy volunteers; Part A, 18 mg single inhaled dose (n = 4), Day 7, possibly or probably related, mild): 1 | Adverse events reported: Nausea (healthy volunteers; Part B, 6 mg inhaled (n = 4), Administration day, possibly or probably related, mild): 1 | Adverse events reported: Fatigue (healthy volunteers; [9]): 1 | Adverse events reported: Head discomfort (healthy volunteers; [9]): 1 | Adverse events reported: Headache (healthy volunteers; [9]): 1 | Adverse events reported: Nausea (healthy volunteers; [9]): 1 | Adverse events reported (healthy volunteers; Part B, 18 mg (n = 1), after 12 mg and 6 mg, Administration day, Day 1 and Day 7): None reported | Changes in vital parameters (healthy volunteers; shortly after administration, no other noteworthy changes): temporary, not clinically relevant increase in heart rate and blood pressure | PGI-I (7-point scale; 1, Very much improved; 2, Much improved; 7, Very much worse) [2, 10]: 1 | BPRS Unusual thought content (1-7) [2, 10]: 1 | MADRS suicidal thoughts item (0 to 6) [2, 10]: 0 | BPRS Somatic concern (1-7) [2, 10]: 2 | BPRS Tension (1-7) [2, 10]: 3 | BPRS Guilt feelings (1-7) [2, 10]: 1 | PGI-S (7-point scale; 1, Normal, not at all ill; 7, Extremely ill) [2, 10]: 1 | BPRS Depressive Mood (1-7) [2, 10]: 2 | BPRS Anxiety (1-7) ([2]; 2 h after single 12 mg inhaled dose, baseline 7): 2 | MADRS (overall score 0 to 60) ([2]; 2 h after single 12 mg inhaled dose, baseline 31, sleep item carried forward from baseline): 10 | BPRS (total, 18 symptoms each rated 1-7) ([2]; 2 h after single 12 mg inhaled dose, baseline 42): 27 | C-SSRS Suicidal Ideation (any of the suicidal ideation items present) ([2]; 2 h after single 12 mg inhaled dose, baseline Yes): No | PGI-I (7-point scale; 1, Very much improved; 2, Much improved; 7, Very much worse) [2, 11]: 1 | BPRS Unusual thought content (1-7) [2, 11]: 1 | MADRS suicidal thoughts item (0 to 6) [2, 11]: 0 | BPRS Somatic concern (1-7) [2, 11]: 1 | BPRS Tension (1-7) [2, 11]: 1 | BPRS Guilt feelings (1-7) [2, 11]: 1 | PGI-S (7-point scale; 1, Normal, not at all ill; 7, Extremely ill) [2, 11]: 1 | BPRS Depressive Mood (1-7) [2, 11]: 1
